Reference: US11306094B2, “Stable formulations of 5,10-methylene-(6R)-tetrahydrofolic acid” (MERCK & CIE, priority 2016, dated 2022)
Structures can show the parent of a compound that is named as a salt. Where two headings read alike, the source gives them in different places.

Legend:
[1] = physiological common salt solution, +25° C., cited from earlier work
[2] = Content of degradation product 10-formyltetrahydrofolic acid in sulfate salt, HPLC; format: physicochemical
Protocol: (b) Content of the degradation product 10-formyl-(6R)-tetrahydrofolic acid (6R)-5,10-CH2-THF sulfate salt was prepared according to literature procedures (EP 0 537 492 B1) and stored for 15 months at −20° C. Subsequently, samples of the product were stored at 5° C. resp. at 25° C. and 60% relative humidity resp. at 40° C. and 75% relative humidity. The content of 10-formyltetrahydrofolic acid, a major degradation product, was measured by HPLC at periodic intervals and disclosed as absolute values (% w/w).

[3] = Long-term stability of sulfate salt, HPLC content; format: physicochemical
Protocol: In order to compare the long-term stabilities of (6R)-5,10-CH2-THF hemisulfate salt to the long-term stabilities of (6R)-5,10-CH2-THF sulfate salt prepared according to EP 0 537 492 B1, stability data for (6R)-5,10-CH2-THF sulfate salt has been generated at various temperatures and humidities. (a) Stability of (6R)-5,10-CH2-THF Sulfate (6R)-5,10-CH2-THF sulfate salt was prepared according to literature procedures (EP 0 537 492 B1) and stored for 15 months at −20° C. Subsequently, samples of the product were stored at 5° C. resp. at 25° C. and 60% relative humidity resp. at 40° C. and 75% relative humidity. The content of (6R)-5,10-CH2-THF sulfate salt remaining in the sample was measured by HPLC at periodic intervals. The content of (6R)-5,10-CH2-THF sulfate was compared to the initial value at the time of preparation (% rel.).

[4] = after 15 months at −20° C., then 5° C., 0 months
[5] = after 15 months at −20° C., then 5° C., 6 months
[6] = after 15 months at −20° C., then 25° C./60% rh, 0 months
[7] = after 15 months at −20° C., then 25° C./60% rh, 6 months
[8] = after 15 months at −20° C., then 40° C./75% rh, 0 months
[9] = after 15 months at −20° C., then 40° C./75% rh, 6 months

Nc1nc2c(c(=O)[nH]1)N1CN(c3ccc(C(=O)N[C@@H](CCC(=O)O)C(=O)O)cc3)C[C@H]1CN2 (mixture of isomers) [5,10-methylene-(6R,S)-tetrahydrofolic acid]
% relative stability ([1]; with the exclusion of air, 0 hours): 100.0%
% relative stability ([1]; with the exclusion of air, 4.0 hours): 58.0%
% relative stability ([1]; with the exclusion of air, 24.0 hours): 38.0%
% relative stability ([1]; with the exclusion of air, 26.0 hours): 18.0%
% relative stability ([1]; with the exclusion of air, 48.0 hours): 8.0%
% relative stability ([1]; without the exclusion of air, 0 hours): 100.0%
% relative stability ([1]; without the exclusion of air, 4.0 hours): 84%
% relative stability ([1]; without the exclusion of air, 24.0 hours): 12.0%
% relative stability ([1]; without the exclusion of air, 26.0 hours): 8.0%
% relative stability ([1]; without the exclusion of air, 48.0 hours): 6.0%

Nc1nc2c(c(=O)[nH]1)N1CN(c3ccc(C(=O)N[C@@H](CCC(=O)O)C(=O)O)cc3)C[C@H]1CN2 [(6R)-5,10-CH2-THF sulfate salt, 5,10-methylene-(6R)-tetrahydrofolic acid]
10-formyltetrahydrofolic acid (% w/w) [2, 4]: 1.37 % w/w
10-formyltetrahydrofolic acid (% w/w) [2, 5]: 1.47 % w/w
10-formyltetrahydrofolic acid (% w/w) [2, 6]: 1.37 % w/w
10-formyltetrahydrofolic acid (% w/w) [2, 7]: 1.89 % w/w
10-formyltetrahydrofolic acid (% w/w) [2, 8]: 1.37 % w/w
10-formyltetrahydrofolic acid (% w/w) [2, 9]: 2.36 % w/w
10-formyltetrahydrofolic acid (% w/w) ([2]; −20° C., 0 months): 0.53 % w/w
10-formyltetrahydrofolic acid (% w/w) ([2]; −20° C., 15 months): 1.37 % w/w
(6R)-5,10-CH2—THF sulfate (% rel.) [3, 4]: 98.7 % rel.
(6R)-5,10-CH2—THF sulfate (% rel.) [3, 5]: 97.3 % rel.
(6R)-5,10-CH2—THF sulfate (% rel.) [3, 6]: 98.7 % rel.
(6R)-5,10-CH2—THF sulfate (% rel.) [3, 7]: 95.5 % rel.
(6R)-5,10-CH2—THF sulfate (% rel.) [3, 8]: 98.7 % rel.
(6R)-5,10-CH2—THF sulfate (% rel.) [3, 9]: 95.0 % rel.
(6R)-5,10-CH2—THF sulfate (% rel.) ([3]; −20° C., 0 months): 100.0 % rel.
(6R)-5,10-CH2—THF sulfate (% rel.) ([3]; −20° C., 15 months): 98.7 % rel.
